# Like-named read-outs stand apart in the source and are kept apart here.
# Assays:
# [1] = test system: poly dAdT-poly dAdT; experiment: Thermal denaturation of poly dAdT-poly dAdT (∆Tm); type: binding; conditions: I = 50 mM
# Experimental: (§1) Experiments were conducted in an aqueous buffer solution (pH = 7.0 or pH= 5.0, I = 0.05 M, sodium cacodylate buffer). For the UV-Vis spectra were used Varian Cary 100 Bio spectrometer, for fluorescence spectra we used the Varian Cary Eclipse fluorimeter and for CD spectra we used the JASCO J815 spectropolarimeter, all conducted at 25.0 °C using appropriate quartz cuvettes (path length: 1 cm).
# (§2) Polynucleotides were purchased as noted: poly dAdT-poly dAdT, poly dGdC-poly dGdC, poly A-poly U (ds-RNA), (Sigma-Aldrich, Schnelldorf, Germany), calf thymus (ct)-DNA (Sigma-Aldrich, Schnelldorf, Germany) and dissolved in sodium cacodylate buffer, I = 0.05 M, pH = 7.0. The ct-DNA was sonicated and filtered through a 0.45 µm filter to obtain mostly short (ca. 100 base pairs) rod-like B-helical DNA fragments. The concentration of DNA or RNA was determined spectroscopically as the c(nucleobase) using producer-provided molar extinction coefficients.
# (§3) Thermal denaturation of ds-DNA, ds-RNA and their complexes with studied compounds was performed by monitoring the absorption change at 260 nm as a function of temperature. Tm values are the midpoints of the transition curves determined from the maximum of the first derivative and checked graphically by the tangent method. The ∆Tm values were calculated by subtracting the Tm of the free nucleic acid from the Tm of the complex. Every ∆Tm value here reported was the average of at least two measurements. The error in ∆Tm is ± 0.5 °C.
# [2] = test system: pApU (poly A-poly U, ds-RNA); experiment: Thermal denaturation of pApU ds-RNA (∆Tm); type: binding; conditions: I = 50 mM
# Experimental: as §1, §2, §3
# [3] = molecular target: AT-DNA (poly dAdT-poly dAdT); experiment: Fluorimetric titration with AT-DNA, Scatchard equation; type: binding; conditions: pH 7, sodium cacodylate buffer, I = 0.05 M
# Experimental: as §1, §2
# Fortunately, strong emission from the compounds studied allowed fluorimetric titrations to be performed at much lower concentrations of the dyes (c = 5 × 10^−8 M), thus preventing precipitation of non-methylated 1 or 2, and allowing for the collection of numerous data points at excess of DNA/RNA binding sites over c(dye). […]
# [4] = test system: A549 cells; experiment: Confocal time-lapse imaging under irradiation; type: cell-based, human; conditions: A549, 1 µM (Figure 9), irradiated at 350 nm
# Experimental: Cells were left in the cell incubator for 90 min to allow the compound to enter the cells. After incubation, the medium was replaced with 500 μL of fresh medium. […]
# [5] = test system: A549 cells; experiment: Mitochondrial ROS (MitoSOX Red); type: cell-based, human; conditions: A549, 1 µM plus UV irradiation, vs DMSO and 1M alone
# Experimental: For measuring mitochondrial ROS, A549 cells were treated with 1 μM of the respective compound and incubated for 90 min (37 °C, 5% CO2), allowing the compound to enter to cells. Mitochondrial superoxide production was assessed with MitoSOX Red reagent (Thermo Fisher Scientific, Waltham, MA). The cells were washed with PBS and trypsinized, and then kept on ice unless otherwise specified. Cells were distributed into small tubes (3 × 10^5 cells per tube) and resuspended in 5 µM MitoSOX solution prepared in PBS. The cells were incubated on a thermomixer for 30 min at 37 °C, with shaking (300 rpm), in the dark, followed by two washes with PBS. Then, cells dyed with MitoSOX were re-suspended in 400 µL of PBS and distributed into black 96-well plates, 120 µL per well (in triplicate). A Tecan Infinite 200 fluorescence microplate reader with 485/520 and 520/590 nm excitation/emission wavelengths was used to measure MitoSOX fluorescence.
# [6] = test system: ct-DNA; design: method as in PMID 33231335; conditions: I = 50 mM, cited from earlier work
# [7] = test system: poly dAdT-poly dAdT (AT-DNA, p(dAdT)2) (DNA, polymer) AT; experiment: UV thermal denaturation at 260 nm; conditions: Na+ (sodium cacodylate, I = 50 mM); pH 7.0; r = [compound]/[polynucleotide] = 0.2; error ± 0.5 °C; per base
# [8] = test system: poly dGdC-poly dGdC (GC-DNA, p(dGdC)2) (DNA, polymer) GC; experiment: fluorimetric titration, Scatchard; conditions: Na+ (sodium cacodylate, I = 0.05 M); pH 7.0, 25 °C; Scatchard n fixed at 0.2 or 0.3; per base
# [9] = pKa from pH dependence of UV/vis spectrum; type: physicochemical; conditions: water (0.001 M HCl in miliQ water, titrated with NaOH), UV/vis spectra vs pH in water, c = 2.0 × 10^−5 M
# [10] = Solubility in water; type: physicochemical
# [11] = r = 0.2, pH 7.0, sodium cacodylate buffer
# [12] = r = 0.3, pH 7.0, sodium cacodylate buffer
SMILES,"∆Tm Poly dAdT-Poly dAdT [1, 11]","∆Tm Poly dAdT-Poly dAdT [1, 12]","∆Tm pApU [2, 11]","∆Tm pApU [2, 12]",Binding constant logKs AT-DNA [3],Cell morphology under continuous irradiation [4],mtROS levels (MitoSOX Red) [5],"∆Tm ct-DNA [6, 11]","∆Tm ct-DNA [6, 12]",∆Tm [7],logKs [8],pKa [9],Solubility in water [10]
"C[n+]1ccc(-c2cc3ccc4cccc5ccc(c2)c3c45)cc1 [1M, 2-para-N-methylpyridinium pyrene]",8 °C,9 °C,3 °C,3 °C,5.9,swelling and even blebbing morphology,significantly increased mtROS levels,^c 2 °C,^c 2 °C,8 °C,7.0,,
C[n+]1ccc(-c2cc3ccc4cc(-c5cc[n+](C)cc5)cc5ccc(c2)c3c45)cc1 [2M],31 °C,33 °C,4 °C,,7.1,swelling and even blebbing morphology,,,,31 °C,9.1,,
c1cc2ccc3cc(-c4ccncc4)cc4ccc(c1)c2c34 [compound 1],,,,,,,,,,,,~5,poorly soluble in water
